{"source": "patent US20220117957A1", "about": "“TREATMENT METHOD FOR CORONAVIRUS INFECTION” (priority 2020, published 2022)", "key": {"SARS-CoV-2": {"system": "SARS-CoV-2", "type": "in vivo", "conditions": "individuals infected with SARS-CoV-2 treated with Rifampin"}, "[1]": {"conditions": "organic solvents; water at acidic pH; cited from earlier work"}}, "data": [{"smiles": "CO[C@H]1/C=C/O[C@@]2(C)Oc3c(C)c(O)c4c(O)c(c(/C=N/N5CCN(C)CC5)c(O)c4c3C2=O)NC(=O)/C(C)=C\\C=C\\[C@H](C)[C@H](O)[C@@H](C)[C@@H](O)[C@@H](C)[C@H](OC(C)=O)[C@@H]1C", "note": "[Rifampin]", "values": [{"measurement": "recovery times", "setting": "SARS-CoV-2", "value": "much faster recovery times"}, {"measurement": "severity of symptoms", "setting": "SARS-CoV-2", "value": "less severe symptoms"}, {"measurement": "solubility", "setting": "[1]", "value": "soluble in organic solvents and in water at acidic pH"}]}]}
